The target of experiment [1] is T1, PSK receptor (120-kD receptor kinase) (Daucus carota, UniProt Q8LPB4).
T1 construct: The inserted portion (i.e., full length cDNA) in the positive phage was subcloned to pBS vector; expressed in transfected cells; host or cells: transgenic carrot cells (sense transformant, pBI121, CaMV 35S promoter); membrane fraction
T1 sequence (Q8LPB4 25-1021): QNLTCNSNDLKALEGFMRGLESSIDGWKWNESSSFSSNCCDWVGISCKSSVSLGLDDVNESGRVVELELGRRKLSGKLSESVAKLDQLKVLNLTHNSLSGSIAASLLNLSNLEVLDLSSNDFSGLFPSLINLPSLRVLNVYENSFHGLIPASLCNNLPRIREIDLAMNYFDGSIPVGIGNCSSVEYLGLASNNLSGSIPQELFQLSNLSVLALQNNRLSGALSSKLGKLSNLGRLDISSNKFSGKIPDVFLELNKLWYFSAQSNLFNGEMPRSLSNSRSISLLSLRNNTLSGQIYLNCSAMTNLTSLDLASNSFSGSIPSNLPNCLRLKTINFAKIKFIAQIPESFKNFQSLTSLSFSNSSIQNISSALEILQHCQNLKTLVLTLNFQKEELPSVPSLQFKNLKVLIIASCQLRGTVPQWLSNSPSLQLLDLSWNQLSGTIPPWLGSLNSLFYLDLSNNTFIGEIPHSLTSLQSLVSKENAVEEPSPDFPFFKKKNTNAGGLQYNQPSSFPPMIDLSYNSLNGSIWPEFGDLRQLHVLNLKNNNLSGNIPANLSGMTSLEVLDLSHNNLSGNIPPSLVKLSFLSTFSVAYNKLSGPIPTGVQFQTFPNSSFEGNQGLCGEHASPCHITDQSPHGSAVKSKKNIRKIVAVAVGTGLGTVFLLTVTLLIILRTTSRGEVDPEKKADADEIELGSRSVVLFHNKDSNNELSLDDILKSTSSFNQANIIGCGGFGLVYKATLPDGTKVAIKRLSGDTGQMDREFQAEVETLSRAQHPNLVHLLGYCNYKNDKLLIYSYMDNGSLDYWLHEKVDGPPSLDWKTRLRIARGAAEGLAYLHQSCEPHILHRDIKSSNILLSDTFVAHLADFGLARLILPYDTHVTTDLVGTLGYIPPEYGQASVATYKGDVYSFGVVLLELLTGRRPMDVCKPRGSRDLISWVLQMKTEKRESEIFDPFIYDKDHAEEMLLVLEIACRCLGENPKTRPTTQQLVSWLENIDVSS
The experiment is described as follows: specific binding of PSK to membrane fractions, Scatchard plot. Also on record: species or system carrot.

Experiment [2] has as its target T1, PSK receptor (120-kD receptor kinase). The experiment is described as follows: inhibition of [3H]PSK binding to the membrane fraction of the sense transformant by unlabelled competitors. Also on record: species or system carrot. The note with it: 6.3 nM [3H]PSK, 3.2 μM unlabelled competitor. Here is the method:
The specificity of the PSK binding activity was characterized by comparing the relative binding affinity for several PSK analogs. […] The membrane proteins were incubated in binding buffer containing 6.3 nM [^3H]PSK and 3.2 μM of the competitor .

Experiment [3] deals with transgenic carrot cells overexpressing the receptor protein (sense transformants). The experiment is described as follows: callus growth of transgenic carrot cells in response to PSK. The format is cell-based. The note with it: 10 nM PSK, 3 weeks on B5 media with NAA 1.0 mg/liter and 6-BA 0.5 mg/liter. Here is the method: The chimeric genes were composed of the receptor kinase ORF, in the sense or antisense orientation, under the control of the constitutive cauliflower mosaic virus 35S promoter incorporated within the binary vector pBI 121. Transformation of carrot hypocotyl segments and plant regeneration were performed following a protocol described elsewhere (M. Hardegger, A. Sturm, Mol. Breed. 4, 119 (1998)). Carrot cells transformed with the binary vector alone were used as controls. Analysis of variance of the growth data was carried out using the Student's t-test procedure of the Prism software (GraphPad Software).
The cDNA of the aforementioned protein was overexpressed in transgenic carrot cells, in sense orientation, under the control of the cauliflower mosaic virus 35S promoter. […] These phenotypes are consistent with the hypothesis that overexpression and antisense inhibition of this receptor protein alter the responsive property of carrot cells to PSK. FIGS. 6A to 6C show the callus growth of the sense transformants, the control cells, and antisense transformants exposed to 10 nM PSK, respectively. The transformed carrot cells and the control cells were cultured for 3 weeks on B5 media containing naphthaleneacetic acid (NAA, 1.0 mg/liter), 6-benzylamino purine (6-BA, 0.5 mg/liter), and 10 nM PSK. The scale bar in FIG. 6C represents 1 cm.

Experiment [4] addresses PSK receptor protein (120-kD receptor kinase of carrot) (carrot) (UniProt Q8LPB4). The experiment is described as follows: [3H]PSK saturation binding to membrane fractions of sense transformants, Scatchard plot.
Experiment [5] has the same target. Nature of the experiment: [3H]PSK saturation binding to membrane fractions of control carrot cells (endogenous receptor), Scatchard plot.
For experiment [6], the target named is T2, PSK receptor protein (120-kD receptor kinase of carrot) (carrot, UniProt Q8LPB4 25-1021, N-linked oligosaccharide chains of approximately 10 kD (cleaved by PNGase F)).
T2 construct: Assayed in membrane fractions of carrot cells (sense transformants overexpressing the ORF; control cells with the endogenous protein) or solubilized from carrot NC cell microsomal membranes; also called phytosulfokine receptor; 120-kD protein
T2 sequence: T1 sequence (Q8LPB4 25-1021)
Nature of the experiment: affinity chromatography on [Lys5]PSK-Sepharose, elution with PSK, SDS-PAGE. Here is the method: Carrot microsomal membranes (1,200 mg protein) were solubilized in 320 ml of buffer containing 20 mM HEPES-KOH (pH 7.5), 50 mM KCl, and 1.0% Triton X-100 (buffer A). Solubilized materials were centrifuged at 100,000 g for 30 min at 4° C., and supernatants were applied to the [Lys⁵]PSK-Sepharose column (5.0 ml) at a flow rate of 0.5 ml/min using the AKTA prime chromatography system (Amersham Pharmacia Biotech). After washing with 50 ml of buffer containing 20 mM HEPES-KOH (pH 7.5), 50 mM KCl, and 0.1% Triton X-100 (buffer B), the column was eluted with 15 ml of 1.0 mg/ml PSK in buffer B. The eluates were added to a 1.0-ml column of Macro-Prep Ceramic Hydroxyapatite Type I (Bio-Rad laboratories) at a flow rate of 0.5 ml/min at 4° C. The column was washed with 20 ml of buffer B and eluted with a 18-ml gradient of KH₂PO₄ (0 to 400 mM) in buffer B. Active fractions (12 ml), as determined by [³H]PSK binding assay, were concentrated by ultrafiltration (Ultrafree-15 with Biomax-10 membranes, Millipore) and analyzed by SDS-PAGE using 7.5% gels (Y. Matsubayashi, Y. Sakagami, Eur. J. Biochem. 262, 666 (1999)).
The PSK-binding proteins were purified with [Lys⁵] PSK-Sepharose column. The purified proteins were further purified by hydroxyapatite column chromatography, concentrated and subjected to SDS-PAGE and Nile red staining.

The mark [7] stands for this setting: membrane fractions of control cells (binary vector alone).
The mark [8] stands for this setting: membrane fractions of sense transformant.

4 molecules from US20040096941A1, “Receptor for plant cell growth factor” (priority 2002, published 2004) can be followed below.

Square brackets hold non-standard residues; d marks the D form. Side chains are listed from the residue outwards. Ends that are not written are not given here. Peptide text beside a SMILES is read from it. sY = N[C@@H](Cc1ccc(OS(=O)(=O)O)cc1)C(=O)O; Ahx = NCCCCCC(=O)O

Consider `CC[C@H](C)[C@H](NC(=O)[C@@H](N)Cc1ccc(OS(=O)(=O)O)cc1)C(=O)N[C@@H](Cc1ccc(OS(=O)(=O)O)cc1)C(=O)N[C@H](C(=O)N[C@@H](CCC(N)=O)C(=O)O)[C@@H](C)O` [PSK, phytosulfokine] (H-[sY]I[sY]TQ-OH; N-terminus and C-terminus assumed), for which, in experiment [1] (setting [7]), the “Bmax (maximum number of binding sites)” value is given as 34±2 fmol per mg of membrane protein and binding was characterised by a dissociation constant (Kd) of 4.8 ± 1.1 nM. Also, in experiment [1] (setting [8]), the “Bmax (maximum number of binding sites)” value is on record as 570±18 fmol per mg of membrane protein and the dissociation constant (Kd) (as a rule, the constant that tells how readily two partners part at equilibrium) came to 4.1 ± 0.5 nM. Besides, the “inhibition of binding of [3H]PSK to the membrane fraction of the sense transformant” value in experiment [2] is “strongly inhibited”. The “callus growth in response to PSK, compared with control cells” value in experiment [3] is recorded as “accelerated growth”.
Consider “[1-4]PSK: less active analog of PSK (YIYT)”, for which, in experiment [2], the “inhibition of binding of [3H]PSK to the membrane fraction of the sense transformant” value is given as “less strongly inhibited”.
Take phytosulfokine (PSK) (peptide): the Bmax (fmol per mg of membrane protein) in experiment [4] was determined as 570; in experiment [5] it was 34.

B1: [Lys5]PSK-Sepharose (peptide)
peptide: [sY]I[sY]TK([Ahx-Ahx-Ahx-Sepharose])
modifications: also: Lys5 side chain coupled via Ahx spacer to Sepharose
For B1, in experiment [6], the binding result was “binds”.
